Laboratory results as given in the kinase profiling compilation of Christmann-Franck et al. (2016).

Columns and labels:
Assay in all cases: KINOMEscan competition binding
Settings in all cases: compound 10.0 µM
PRKX (human) = PRKX (human) (UniProt P51817)
DCLK1 (human) = DCLK1 (human) (UniProt O15075)
PRKD1 (human) = PRKD1 (human) (UniProt Q15139)
RPS6KA6 KD2 (human) = RPS6KA6 KD2 (human) (UniProt Q9UK32)
ADCK4 (human) = ADCK4 (human) (UniProt Q96D53)
MAP3K6 (human) = MAP3K6 (human) (UniProt O95382)
TLK2 (human) = TLK2 (human) (UniProt Q86UE8)
MAP4K1 (human) = MAP4K1 (human) (UniProt Q92918)
CSNK1G3 (human) = CSNK1G3 (human) (UniProt Q9Y6M4)
IKBKB (human) = IKBKB (human) (UniProt O14920)
CAMK2D (human) = CAMK2D (human) (UniProt Q13557)
MARK3 (human) = MARK3 (human) (UniProt P27448)
NTRK3 (human) = NTRK3 (human) (UniProt Q16288)
CRK2 (P.falciparum) = CRK2 (P.falciparum) (UniProt P61075)
SYK (human) = SYK (human) (UniProt P43405)
CDKL1 (human) = CDKL1 (human) (UniProt Q00532)
MAP3K1 (human) = MAP3K1 (human) (UniProt Q13233)
CHEK2 (human) = CHEK2 (human) (UniProt O96017)
CIT (human) = CIT (human) (UniProt O14578)
STK4 (human) = STK4 (human) (UniProt Q13043)
HIPK3 (human) = HIPK3 (human) (UniProt Q9H422)
NTRK2 (human) = NTRK2 (human) (UniProt Q16620)
PAK7 (human) = PAK7 (human) (UniProt Q9P286)
EPHA1 (human) = EPHA1 (human) (UniProt P21709)
PRKCD (human) = PRKCD (human) (UniProt Q05655)
[1] = target: JAK3 JH1 catalytic (human) (UniProt P52333)
TNNI3K (human) = TNNI3K (human) (UniProt Q59H18)
SLK (human) = SLK (human) (UniProt Q9H2G2)
PRKCH (human) = PRKCH (human) (UniProt P24723)
PLK4 (human) = PLK4 (human) (UniProt O00444)
LIMK1 (human) = LIMK1 (human) (UniProt P53667)
RIPK1 (human) = RIPK1 (human) (UniProt Q13546)
NTRK1 (human) = NTRK1 (human) (UniProt P04629)
DYRK1A (human) = DYRK1A (human) (UniProt Q13627)
YES1 (human) = YES1 (human) (UniProt P07947)
EPHB3 (human) = EPHB3 (human) (UniProt P54753)
MAPK8 (human) = MAPK8 (human) (UniProt P45983)
PLK1 (human) = PLK1 (human) (UniProt P53350)
KDR (human) = KDR (human) (UniProt P35968)
CSNK1G2 (human) = CSNK1G2 (human) (UniProt P78368)

Sequence of EPHA1 (human) (P21709 whole entry, looked up): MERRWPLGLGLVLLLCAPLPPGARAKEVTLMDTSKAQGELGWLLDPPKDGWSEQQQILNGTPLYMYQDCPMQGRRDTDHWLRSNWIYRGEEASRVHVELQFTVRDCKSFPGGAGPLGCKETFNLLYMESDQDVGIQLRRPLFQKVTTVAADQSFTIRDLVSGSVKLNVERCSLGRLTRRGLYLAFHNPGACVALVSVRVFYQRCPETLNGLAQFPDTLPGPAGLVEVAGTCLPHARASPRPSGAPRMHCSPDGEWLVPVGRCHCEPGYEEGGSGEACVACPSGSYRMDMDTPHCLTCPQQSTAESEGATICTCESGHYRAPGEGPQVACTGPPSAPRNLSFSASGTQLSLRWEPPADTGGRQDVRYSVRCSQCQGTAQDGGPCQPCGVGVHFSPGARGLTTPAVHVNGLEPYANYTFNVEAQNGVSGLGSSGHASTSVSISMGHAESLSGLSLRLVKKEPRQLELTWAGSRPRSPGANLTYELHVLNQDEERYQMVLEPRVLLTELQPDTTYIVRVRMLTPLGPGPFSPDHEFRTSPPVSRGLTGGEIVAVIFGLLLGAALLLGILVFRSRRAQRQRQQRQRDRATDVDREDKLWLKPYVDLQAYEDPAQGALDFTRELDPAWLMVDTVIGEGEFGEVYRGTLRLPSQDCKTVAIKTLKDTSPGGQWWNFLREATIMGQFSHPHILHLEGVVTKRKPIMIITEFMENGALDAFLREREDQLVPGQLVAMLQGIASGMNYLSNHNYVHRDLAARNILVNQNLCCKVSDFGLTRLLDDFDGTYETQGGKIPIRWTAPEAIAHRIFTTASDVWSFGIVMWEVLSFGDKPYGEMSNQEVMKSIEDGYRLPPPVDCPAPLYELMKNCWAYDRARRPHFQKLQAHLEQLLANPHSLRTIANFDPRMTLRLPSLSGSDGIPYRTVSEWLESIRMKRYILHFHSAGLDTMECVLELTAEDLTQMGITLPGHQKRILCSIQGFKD
Sequence of IKBKB (human) (O14920 whole entry, looked up): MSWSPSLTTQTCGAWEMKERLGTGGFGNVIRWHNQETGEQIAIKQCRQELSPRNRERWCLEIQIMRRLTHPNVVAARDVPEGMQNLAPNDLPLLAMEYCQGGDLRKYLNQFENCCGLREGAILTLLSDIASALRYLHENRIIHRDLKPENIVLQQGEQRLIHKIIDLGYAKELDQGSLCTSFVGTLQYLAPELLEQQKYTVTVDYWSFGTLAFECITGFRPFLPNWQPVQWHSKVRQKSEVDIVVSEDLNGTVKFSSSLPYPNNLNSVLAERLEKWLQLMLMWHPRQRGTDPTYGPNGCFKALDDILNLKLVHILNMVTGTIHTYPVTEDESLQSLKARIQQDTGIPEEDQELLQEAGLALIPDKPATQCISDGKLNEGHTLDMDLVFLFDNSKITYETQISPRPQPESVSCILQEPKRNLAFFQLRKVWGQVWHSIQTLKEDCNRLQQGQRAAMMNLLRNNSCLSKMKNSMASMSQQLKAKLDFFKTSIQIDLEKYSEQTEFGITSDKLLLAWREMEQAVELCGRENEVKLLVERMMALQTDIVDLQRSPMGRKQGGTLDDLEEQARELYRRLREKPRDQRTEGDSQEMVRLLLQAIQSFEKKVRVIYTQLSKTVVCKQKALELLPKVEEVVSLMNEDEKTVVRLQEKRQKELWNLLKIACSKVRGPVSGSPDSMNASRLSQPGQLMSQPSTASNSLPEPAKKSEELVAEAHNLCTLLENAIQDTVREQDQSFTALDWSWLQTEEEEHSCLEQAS
Sequence of CDKL1 (human) (Q00532 whole entry, looked up): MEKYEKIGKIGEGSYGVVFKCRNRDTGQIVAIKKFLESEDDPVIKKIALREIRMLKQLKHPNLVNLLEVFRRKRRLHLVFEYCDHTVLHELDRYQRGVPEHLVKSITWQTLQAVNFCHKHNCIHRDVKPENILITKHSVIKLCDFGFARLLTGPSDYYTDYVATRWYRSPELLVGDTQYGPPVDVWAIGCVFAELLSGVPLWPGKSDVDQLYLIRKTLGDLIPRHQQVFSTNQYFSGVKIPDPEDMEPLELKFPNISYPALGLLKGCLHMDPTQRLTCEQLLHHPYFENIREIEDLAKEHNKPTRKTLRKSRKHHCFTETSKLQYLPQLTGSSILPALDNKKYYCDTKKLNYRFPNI
Sequence of EPHB3 (human) (P54753 whole entry, looked up): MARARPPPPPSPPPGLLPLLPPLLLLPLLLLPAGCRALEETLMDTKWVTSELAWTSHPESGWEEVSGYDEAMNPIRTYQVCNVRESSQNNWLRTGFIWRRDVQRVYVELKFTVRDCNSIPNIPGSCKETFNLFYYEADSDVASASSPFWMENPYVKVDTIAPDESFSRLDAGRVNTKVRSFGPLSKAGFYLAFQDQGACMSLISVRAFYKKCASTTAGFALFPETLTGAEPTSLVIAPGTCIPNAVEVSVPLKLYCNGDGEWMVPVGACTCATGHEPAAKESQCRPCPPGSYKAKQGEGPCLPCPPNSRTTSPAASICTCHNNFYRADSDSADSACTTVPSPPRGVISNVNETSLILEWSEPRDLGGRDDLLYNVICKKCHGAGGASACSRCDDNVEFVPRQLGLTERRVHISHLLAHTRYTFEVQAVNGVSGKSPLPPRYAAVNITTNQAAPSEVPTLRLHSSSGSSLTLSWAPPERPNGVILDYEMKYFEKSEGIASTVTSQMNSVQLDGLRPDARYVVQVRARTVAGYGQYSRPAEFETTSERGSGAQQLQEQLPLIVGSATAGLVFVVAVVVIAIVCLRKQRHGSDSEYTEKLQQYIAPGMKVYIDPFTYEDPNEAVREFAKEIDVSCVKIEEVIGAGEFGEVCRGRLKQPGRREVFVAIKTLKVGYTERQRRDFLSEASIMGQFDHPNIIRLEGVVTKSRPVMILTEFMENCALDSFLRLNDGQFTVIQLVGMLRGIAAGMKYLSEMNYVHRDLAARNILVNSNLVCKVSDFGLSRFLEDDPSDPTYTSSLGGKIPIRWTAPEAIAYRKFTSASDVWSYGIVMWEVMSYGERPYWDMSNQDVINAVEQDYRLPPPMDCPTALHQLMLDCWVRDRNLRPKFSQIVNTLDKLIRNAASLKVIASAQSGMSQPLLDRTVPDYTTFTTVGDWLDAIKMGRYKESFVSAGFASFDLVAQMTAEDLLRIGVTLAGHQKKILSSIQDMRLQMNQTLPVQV
Sequence of NTRK2 (human) (Q16620 whole entry, looked up): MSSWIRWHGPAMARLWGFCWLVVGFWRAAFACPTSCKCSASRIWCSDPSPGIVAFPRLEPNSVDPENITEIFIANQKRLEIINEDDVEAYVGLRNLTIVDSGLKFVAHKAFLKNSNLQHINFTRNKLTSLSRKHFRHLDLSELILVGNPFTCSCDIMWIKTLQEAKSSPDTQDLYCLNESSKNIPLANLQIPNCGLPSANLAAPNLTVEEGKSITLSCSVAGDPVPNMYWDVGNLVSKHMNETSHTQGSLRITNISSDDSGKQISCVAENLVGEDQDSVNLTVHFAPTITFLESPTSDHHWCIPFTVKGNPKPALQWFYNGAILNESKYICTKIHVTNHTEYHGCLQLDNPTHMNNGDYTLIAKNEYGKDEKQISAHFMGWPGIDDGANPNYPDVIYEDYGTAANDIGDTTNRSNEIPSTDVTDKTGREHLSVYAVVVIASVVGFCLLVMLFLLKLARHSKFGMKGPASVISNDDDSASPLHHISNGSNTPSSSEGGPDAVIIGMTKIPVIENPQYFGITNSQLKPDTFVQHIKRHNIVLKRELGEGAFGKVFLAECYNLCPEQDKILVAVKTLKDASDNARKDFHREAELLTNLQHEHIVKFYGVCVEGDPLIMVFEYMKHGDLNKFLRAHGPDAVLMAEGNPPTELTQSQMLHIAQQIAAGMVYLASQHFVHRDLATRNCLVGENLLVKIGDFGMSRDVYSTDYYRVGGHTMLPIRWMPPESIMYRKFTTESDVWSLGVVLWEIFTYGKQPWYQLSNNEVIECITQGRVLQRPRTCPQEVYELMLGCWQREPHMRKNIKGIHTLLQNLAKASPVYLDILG
Sequence of RPS6KA6 KD2 (human) (Q9UK32 whole entry, looked up): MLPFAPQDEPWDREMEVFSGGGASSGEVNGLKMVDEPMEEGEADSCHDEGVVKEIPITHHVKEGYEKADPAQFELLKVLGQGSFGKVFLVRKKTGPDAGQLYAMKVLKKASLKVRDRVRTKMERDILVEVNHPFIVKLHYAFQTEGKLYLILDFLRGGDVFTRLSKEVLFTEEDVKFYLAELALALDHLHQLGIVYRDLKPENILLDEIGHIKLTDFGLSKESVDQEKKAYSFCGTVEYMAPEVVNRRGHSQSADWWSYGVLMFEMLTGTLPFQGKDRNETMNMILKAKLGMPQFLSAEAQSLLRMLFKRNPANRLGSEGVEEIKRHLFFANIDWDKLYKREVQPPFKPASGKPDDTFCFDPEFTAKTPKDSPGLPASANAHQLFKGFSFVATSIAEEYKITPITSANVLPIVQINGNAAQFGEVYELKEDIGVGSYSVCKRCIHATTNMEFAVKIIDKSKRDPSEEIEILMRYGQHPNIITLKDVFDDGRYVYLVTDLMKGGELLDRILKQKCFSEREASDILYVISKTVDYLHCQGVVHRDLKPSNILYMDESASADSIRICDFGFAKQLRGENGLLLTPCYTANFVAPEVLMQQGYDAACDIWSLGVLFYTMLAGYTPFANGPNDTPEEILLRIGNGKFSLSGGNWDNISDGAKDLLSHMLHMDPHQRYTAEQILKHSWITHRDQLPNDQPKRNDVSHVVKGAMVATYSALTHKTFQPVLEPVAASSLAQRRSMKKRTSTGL
Sequence of PRKX (human) (P51817 whole entry, looked up): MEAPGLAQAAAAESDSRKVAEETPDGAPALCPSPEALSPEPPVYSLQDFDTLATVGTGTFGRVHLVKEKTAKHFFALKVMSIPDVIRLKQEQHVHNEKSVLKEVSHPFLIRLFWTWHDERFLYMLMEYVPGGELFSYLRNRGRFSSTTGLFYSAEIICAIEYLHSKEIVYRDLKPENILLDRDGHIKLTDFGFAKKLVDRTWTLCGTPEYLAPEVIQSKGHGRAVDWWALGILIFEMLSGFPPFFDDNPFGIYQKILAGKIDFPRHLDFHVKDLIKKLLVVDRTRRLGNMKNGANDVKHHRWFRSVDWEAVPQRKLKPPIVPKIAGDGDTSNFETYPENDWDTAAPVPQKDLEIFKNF

Row | SMILES | kinase still bound, per cent of control (PRKX (human)) [%] | kinase still bound, per cent of control (DCLK1 (human)) [%] | kinase still bound, per cent of control (PRKD1 (human)) [%] | kinase still bound, per cent of control (RPS6KA6 KD2 (human)) [%] | kinase still bound, per cent of control (ADCK4 (human)) [%] | kinase still bound, per cent of control (MAP3K6 (human)) [%] | kinase still bound, per cent of control (TLK2 (human)) [%] | kinase still bound, per cent of control (MAP4K1 (human)) [%] | kinase still bound, per cent of control (IKBKB (human)) [%] | kinase still bound, per cent of control (CAMK2D (human)) [%] | kinase still bound, per cent of control (MARK3 (human)) [%] | kinase still bound, per cent of control (NTRK3 (human)) [%] | kinase still bound, per cent of control (CRK2 (P.falciparum)) [%] | kinase still bound, per cent of control (CDKL1 (human)) [%] | kinase still bound, per cent of control (MAP3K1 (human)) [%] | kinase still bound, per cent of control (CIT (human)) [%] | kinase still bound, per cent of control (STK4 (human)) [%] | kinase still bound, per cent of control (HIPK3 (human)) [%] | kinase still bound, per cent of control (NTRK2 (human)) [%] | kinase still bound, per cent of control (PAK7 (human)) [%] | other results
1 | CCCS(=O)(=O)Nc1ccc(F)c(C(=O)c2c[nH]c3ncc(Cl)cc23)c1F | 100 | 52 | 31 | 98 | 100 | 96 | 75 | 70 | 75 | 99 | 74 | 77 | 91 | 93 | 73 | 66 | 38 | 46 | 82 | 44 | kinase still bound, per cent of control (CSNK1G3 (human)): 79%; kinase still bound, per cent of control (SYK (human)): 100%; kinase still bound, per cent of control (CHEK2 (human)): 64%; kinase still bound, per cent of control (EPHA1 (human)): 100%; kinase still bound, per cent of control (PRKCD (human)): 100%; kinase still bound, per cent of control [1]: 24%; kinase still bound, per cent of control (TNNI3K (human)): 75%; kinase still bound, per cent of control (SLK (human)): 15%; kinase still bound, per cent of control (PRKCH (human)): 100%; kinase still bound, per cent of control (PLK4 (human)): 27%; kinase still bound, per cent of control (LIMK1 (human)): 46%; kinase still bound, per cent of control (RIPK1 (human)): 53%; kinase still bound, per cent of control (NTRK1 (human)): 100%; kinase still bound, per cent of control (DYRK1A (human)): 76%; kinase still bound, per cent of control (YES1 (human)): 18%; kinase still bound, per cent of control (EPHB3 (human)): 100%; kinase still bound, per cent of control (MAPK8 (human)): 96%; kinase still bound, per cent of control (PLK1 (human)): 100%
2 | CC1=C(C(=O)Nc2cc3cn[nH]c3cc2F)C(c2ccc(C(F)(F)F)cc2)CC(=O)N1 (stereo not given) | 14 | 65 | 76 | 85 | 94 | 80 | 100 | 87 | 86 | 100 | 100 | 100 | 100 | 78 | 90 | 87 | 100 | 85 | 76 | 79 | kinase still bound, per cent of control (KDR (human)): 88%; kinase still bound, per cent of control (CSNK1G3 (human)): 90%; kinase still bound, per cent of control (SYK (human)): 100%; kinase still bound, per cent of control (CHEK2 (human)): 78%; kinase still bound, per cent of control (CSNK1G2 (human)): 100%; kinase still bound, per cent of control (EPHA1 (human)): 77%; kinase still bound, per cent of control (PRKCD (human)): 39%; kinase still bound, per cent of control (TNNI3K (human)): 78%; kinase still bound, per cent of control (SLK (human)): 100%; kinase still bound, per cent of control (PRKCH (human)): 35%; kinase still bound, per cent of control (PLK4 (human)): 86%; kinase still bound, per cent of control (LIMK1 (human)): 100%; kinase still bound, per cent of control (RIPK1 (human)): 84%; kinase still bound, per cent of control (NTRK1 (human)): 91%; kinase still bound, per cent of control (DYRK1A (human)): 100%; kinase still bound, per cent of control (YES1 (human)): 65%; kinase still bound, per cent of control (EPHB3 (human)): 84%; kinase still bound, per cent of control (MAPK8 (human)): 85%; kinase still bound, per cent of control (PLK1 (human)): 96%
3 | CC(=O)c1c(C)c2cnc(Nc3ccc(N4CCNCC4)cn3)nc2n(C2CCCC2)c1=O | 90 | 2.9 | 0.85 | 38 | 53 | 69 | 89 | 47 | 80 | 6.8 | 8 | 23 | 19 | 35 | 87 | 3.2 | 74 | 2.1 | 12 | 35 | kinase still bound, per cent of control (CSNK1G2 (human)): 92%; kinase still bound, per cent of control (EPHA1 (human)): 100%; kinase still bound, per cent of control (PRKCD (human)): 90%; kinase still bound, per cent of control [1]: 8.5%; kinase still bound, per cent of control (TNNI3K (human)): 98%; kinase still bound, per cent of control (PLK4 (human)): 3.2%; kinase still bound, per cent of control (RIPK1 (human)): 65%; kinase still bound, per cent of control (NTRK1 (human)): 6.5%; kinase still bound, per cent of control (DYRK1A (human)): 0.9%; kinase still bound, per cent of control (YES1 (human)): 83%; kinase still bound, per cent of control (EPHB3 (human)): 91%; kinase still bound, per cent of control (MAPK8 (human)): 1.6%; kinase still bound, per cent of control (PLK1 (human)): 8.4%
